This passage reports mutagenic call and call results from PubChem BioAssay AID1259408 (Genetic Toxicology Data Bank (GENE-TOX), 2018).

This data set concerns GENE-TOX genotoxicity assays, various organisms and cells. Kind of data set: GENE-TOX mutagenicity studies. The following applies: for call: Assay Type: In vivo carcinogenicity studies.
The mark [1] stands for this setting: Species/Cell Type: Allium cepa, Assay Type: Chromosome aberrations, Assay Code: ALCT, Evaluation Type: Evaluation A (Pre-1980).
The mark [2] stands for this setting: Species/Cell Type: Escherichia coli polA (W3119 vs P3478), Assay Type: Rec-assay, DNA effects (bacterial DNA repair), Assay Code: RE1+, Evaluation Type: Evaluation A (Pre-1980).
[3] abbreviates: Species/Cell Type: Fischer rat embryo (RLV/1706) cells, Assay Type: Cell transformation, viral enhanced, Assay Code: CTR+, Evaluation Type: Evaluation A (Pre-1980).
Where [4] appears, read: Species/Cell Type: Human lymphocytes, Assay Type: Sister-chromatid exchange (SCE) in vitro, Assay Code: SCL+, Evaluation Type: Evaluation B (Post-1980).
Setting [5] is: Species/Cell Type: Human, Assay Type: Sister-chromatid exchange (SCE) in vitro, Assay Code: SC1+, Evaluation Type: Evaluation B (Post-1980).
Setting [6] is: Species/Cell Type: Nonhuman, Assay Code: CCG+L, Evaluation Type: Evaluation A (Pre-1980).
The mark [7] stands for this setting: Species/Cell Type: Nonhuman, Assay Type: Sister-chromatid exchange (SCE) in vitro, Assay Code: SC2+D, Dose Response: With dose response, Evaluation Type: Evaluation A (Pre-1980).
[8] abbreviates: Species/Cell Type: Salmonella typhimurium (one or more of the five standard strains: TA98, TA100, TA1535, TA1537, and TA1538), Assay Type: Histidine reverse gene mutation, Ames assay, Assay Code: SAL+, Evaluation Type: Evaluation A (Pre-1980).
Setting [9] is: Species/Cell Type: Saccharomyces cerevisiae, Assay Type: Mitotic recombination or gene conversion, Assay Code: YEC+, Evaluation Type: Evaluation A (Pre-1980).
Where [10] appears, read: Species/Cell Type: Drosophila melanogaster, Assay Type: Sex-linked recessive lethal gene mutation, Assay Code: SRL+, Evaluation Type: Evaluation A (Pre-1980).

Molecules are shown by their SMILES. Active and inactive are the calls of the source. The rule behind the calls is not given here.

Regarding `Nc1ccccc1`, the mutagenic call was “no conclusion” under setting [1]; “inactive; negative” (Species/Cell Type: Escherichia coli polA (W3110 vs P3478), Assay Type: Rec-assay, DNA effects (bacterial DNA repair), Assay Code: RE2-, Evaluation Type: Evaluation A (Pre-1980)); “active; positive” under setting [2]; “active; positive” under setting [3]; “active; positive” under setting [4]; “active; positive” under setting [5]. The mutagenic call reads like this: (Species/Cell Type: Mammalian polychromatic erythrocytes, Assay Type: Micronucleus test, chromosome aberrations, Assay Code: MNTT, Evaluation Type: Evaluation B (Post-1980)) “no conclusion”; (Species/Cell Type: Mouse (BALB/c-3T3) cells, Assay Type: Cell transformation, Assay Code: CTB+D, Dose Response: With dose response, Evaluation Type: Evaluation A (Pre-1980)) “active; positive”; (Species/Cell Type: Mouse, Sex: Male, Assay Type: Sperm morphology, Assay Code: SPI-, Evaluation Type: Evaluation A (Pre-1980)) “inactive; negative”; under setting [7], “active; positive”; (Species/Cell Type: Nonhuman, Assay Type: Sister-chromatid exchange (SCE) in vivo, Assay Code: SC3+D, Dose Response: With dose response, Evaluation Type: Evaluation B (Post-1980)) “active; positive”; (Species/Cell Type: Saccharomyces cerevisiae, Assay Type: Mitotic recombination or gene conversion, Assay Code: YEH-, Evaluation Type: Evaluation A (Pre-1980)) “inactive; negative”. The mutagenic call (Species/Cell Type: Salmonella typhimurium (one or more of the five standard strains: TA98, TA100, TA1535, TA1537, and TA1538), Assay Type: Histidine reverse gene mutation, Ames assay, Assay Code: SAL-, Evaluation Type: Evaluation A (Pre-1980)) is “inactive; negative”; the mutagenic call (Species/Cell Type: Syrian hamster embryo (SHE) cells, Assay Type: Cell transformation, clonal assay, Assay Code: CTC-, Evaluation Type: Evaluation A (Pre-1980)) was “inactive; negative”. Moreover, the call was “active; positive” under setting [6] and “no conclusion” (Species/Cell Type: Nonhuman, Assay Code: CCGT, Evaluation Type: Evaluation A (Pre-1980)).

On to `CCCCN(N=O)/C(N)=N/[N+](=O)[O-]`, for which the mutagenic call runs as follows: (Species/Cell Type: Arabidopsis species, Assay Type: Gene mutation, Assay Code: ARM+, Evaluation Type: Evaluation A (Pre-1980)) “active; positive”; under setting [8], “active; positive”.

With `CC(C)N(C(=O)CCl)c1ccccc1`, the mutagenic call under setting [9] was “active; positive”.

Consider `CC(=O)ON(C(C)=O)c1ccc2c(c1)Cc1ccccc1-2`, for which the mutagenic call (Species/Cell Type: Chinese hamster lung (V79) cells, Assay Type: Forward gene mutation at the HPRT or ouabain locus, Assay Code: V79+, Evaluation Type: Evaluation A (Pre-1980)) is “active; positive”; the mutagenic call under setting [10] was “active; positive”; the mutagenic call under setting [2] was “active; positive”; the mutagenic call under setting [3] was “active; positive”; the mutagenic call (Species/Cell Type: Human diploid fibroblasts, Assay Type: Unscheduled DNA synthesis (UDS) in vitro, DNA effects, Assay Code: UDH+D, Dose Response: With dose response, Evaluation Type: Evaluation A (Pre-1980)) is “active; positive”; the mutagenic call under setting [4] is “active; positive”. In addition, the mutagenic call runs as follows: (Species/Cell Type: Human, Assay Type: Sister-chromatid exchange (SCE) in vitro, Assay Code: SC1+, Evaluation Type: Evaluation A (Pre-1980)) “active; positive”; (Species/Cell Type: Mouse (BALB/c-3T3) cells, Assay Type: Cell transformation, Assay Code: CTB+, Evaluation Type: Evaluation A (Pre-1980)) “active; positive”; (Species/Cell Type: Mouse (C3H/10T1/2) cells, Assay Type: Cell transformation, Assay Code: CTH+D, Dose Response: With dose response, Evaluation Type: Evaluation A (Pre-1980)) “active; positive”; (Species/Cell Type: Mouse embryo (AKR/ME) cells, Assay Type: Cell transformation, Assay Code: CTK+, Evaluation Type: Evaluation A (Pre-1980)) “active; positive”; (Species/Cell Type: Neurospora crassa, Assay Type: Reverse gene mutation, Assay Code: NER+, Evaluation Type: Evaluation A (Pre-1980)) “active; positive”; under setting [7], “active; positive”. The mutagenic call by setting is: (Species/Cell Type: Nonhuman, Assay Type: Sister-chromatid exchange (SCE) in vivo, Assay Code: SC3+, Evaluation Type: Evaluation B (Post-1980)) “active; positive”; (Species/Cell Type: Nonhuman, Assay Type: Sister-chromatid exchange (SCE) in vivo, Assay Code: SC3T, Evaluation Type: Evaluation A (Pre-1980)) “no conclusion”; (Species/Cell Type: Rat primary hepatocytes, Assay Type: Unscheduled DNA synthesis (UDS) in vitro, DNA effects, Assay Code: UDP+, Evaluation Type: Evaluation A (Pre-1980)) “active; positive”; under setting [9], “active; positive”; (Species/Cell Type: Saccharomyces cerevisiae, Assay Type: Mitotic recombination or gene conversion, Assay Code: YEH+, Evaluation Type: Evaluation A (Pre-1980)) “active; positive”; under setting [8], “active; positive”. For the same molecule, the mutagenic call (Species/Cell Type: Salmonella typhimurium, Assay Type: Forward and reverse gene mutation, host-mediated assay, Assay Code: HMA+, Evaluation Type: Evaluation A (Pre-1980)) is “active; positive”; the mutagenic call (Species/Cell Type: Syrian hamster embryo (SA7/SHE) cells, Assay Type: Cell transformation, viral enhanced, Assay Code: CT7+, Evaluation Type: Evaluation A (Pre-1980)) is “active; positive”; the mutagenic call (Species/Cell Type: Syrian hamster embryo (SHE) cells, Assay Type: Cell transformation, clonal assay, Assay Code: CTC+D, Dose Response: With dose response, Evaluation Type: Evaluation A (Pre-1980)) was “active; positive”; the mutagenic call (Species/Cell Type: Syrian hamster embryo (SHE) cells, Assay Type: Cell transformation, focus assay, Assay Code: CTF+, Evaluation Type: Evaluation A (Pre-1980)) was “active; positive”. Further, the call under setting [6] was “active; positive”.

Turning to `O=C(OCN=Nc1ccccc1)c1ccccc1`, under “Species/Cell Type: Escherichia coli polA (W3119 vs P3478), Assay Type: Rec-assay, DNA effects (bacterial DNA repair), Assay Code: RE1T, Evaluation Type: Evaluation A (Pre-1980)”, the mutagenic call is on record as “no conclusion”.

Consider `CCC(C)c1cc([N+](=O)[O-])cc([N+](=O)[O-])c1OC(C)=O` (centres undefined), for which, where the note is “Species/Cell Type: Saccharomyces cerevisiae, Assay Type: Mitotic recombination or gene conversion, Assay Code: YEC-, Evaluation Type: Evaluation A (Pre-1980)”, the mutagenic call was “inactive; negative”.

For `O=Nn1c2ccccc2c2ccccc21`, the mutagenic call (Species/Cell Type: Rat primary hepatocytes, Assay Type: Unscheduled DNA synthesis (UDS) in vitro, DNA effects, Assay Code: UDP-, Evaluation Type: Evaluation A (Pre-1980)) is “inactive; negative”.

In the case of `CCCCC[CH2][Hg][Br]`, the mutagenic call (Species/Cell Type: Allium cepa, Assay Type: Chromosome aberrations, Assay Code: ALC+D, Dose Response: With dose response, Evaluation Type: Evaluation A (Pre-1980)) is “active; positive”.

In the case of `CCN(CC)CCNc1ccc(C(=O)O)c2sc3ccccc3c(=O)c12`, the mutagenic call under setting [3] was “active; positive”.

On to `CNc1ccc(O)cc1`, for which the mutagenic call runs as follows: under setting [1], “no conclusion”; (Species/Cell Type: Neurospora crassa, Assay Type: Aneuploidy, chromosome aberrations, Assay Code: NEN-, Evaluation Type: Evaluation A (Pre-1980)) “inactive; negative”.

Take `O=c1cc(O)c2ccccc2[nH]1`: for the setting “Species/Cell Type: Salmonella typhimurium (one or more of the five standard strains: TA98, TA100, TA1535, TA1537, and TA1538), Assay Type: Histidine reverse gene mutation, Ames assay, Assay Code: SAL+*, Activation: With metabolic activation, Evaluation Type: Evaluation A (Pre-1980)”, the mutagenic call is “active; positive”.

With `Cc1ccc2ccc3c4ccccc4c(C)c4ccc1c2c43`, under setting [10], the mutagenic call is “active; positive”.

`CCCCC(CC)COC(=O)c1ccccc1C(=O)O` (centres undefined): the mutagenic call was “no conclusion” (Species/Cell Type: Chinese hamster ovary (CHO) cells, Assay Type: Forward gene mutation at the HPRT locus, Assay Code: CHOT, Evaluation Type: Evaluation B (Post-1980)) and “inactive; negative” (Species/Cell Type: Nonhuman, Assay Type: Sister-chromatid exchange (SCE) in vitro, Assay Code: SC2-, Evaluation Type: Evaluation B (Post-1980)).

Consider `O=P(OCC(Br)CBr)(OCC(Br)CBr)OCC(Br)CBr` (centres undefined), for which the mutagenic call is, setting by setting: (Species/Cell Type: Chinese hamster lung (V79) cells, Assay Type: Forward gene mutation, host-mediated assay, Assay Code: HMG+, Evaluation Type: Evaluation A (Pre-1980)) “active; positive”; under setting [10], “active; positive”; (Species/Cell Type: Drosophila melanogaster, Sex: Male, Assay Type: Heritable translocation test, chromosome aberrations, Assay Code: DHT+, Evaluation Type: Evaluation A (Pre-1980)) “active; positive”; under setting [5], “active; positive”; (Species/Cell Type: Mammalian polychromatic erythrocytes, Assay Type: Micronucleus test, chromosome aberrations, Assay Code: MNT+, Evaluation Type: Evaluation B (Post-1980)) “active; positive”; (Species/Cell Type: Mouse, Sex: Male, Assay Type: Sperm morphology, Assay Code: SPI+, Evaluation Type: Evaluation A (Pre-1980)) “active; positive”. The mutagenic call runs as follows: under setting [7], “active; positive”; (Species/Cell Type: Nonhuman, Assay Type: Sister-chromatid exchange (SCE) in vivo, Assay Code: SC3+D, Dose Response: With dose response, Evaluation Type: Evaluation A (Pre-1980)) “active; positive”; under setting [8], “active; positive”. The call (Species/Cell Type: Nonhuman, Assay Code: CCG+, Evaluation Type: Evaluation A (Pre-1980)) was “active; positive”.

As to `COc1ccc(/C=N/NC(=O)COc2ccc(Br)cc2CN2CCOCC2)cc1`, for the setting “Species/Cell Type: Saccharomyces cerevisiae, Assay Type: Reverse gene mutation, Assay Code: YERT, Evaluation Type: Evaluation A (Pre-1980)”, the mutagenic call is listed as “no conclusion”.
